Data published in US12258327B2, “5-membered heteroaryl-containing aminopyridine compounds as EGFR inhibitors” (YUHAN CORPORATION, priority 2021, dated 2025).
Read-outs that look alike come from different tables or passages of the source.

Columns and labels:
[1] = target: EGFR del19/T790M/C797S (Homo sapiens, UniProt P00533, C797S/DEL746-750/T790M); assay: Biochemical EGFR kinase assay (Lance Ultra TR-FRET), triple mutant del19/T790M/C797S
Outline: (§1)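 Kinase activity is measured by TR-FRET phosphopeptide detection. Compounds span 0.003 μM to 10 μM; the 1 h reaction at room temperature is quenched with EDTA, then labelled antibody (2 nM) is incubated 60 min before reading.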

[2] = target: EGFR L858R/T790M/C797S (Homo sapiens, UniProt P00533, C797S/L858R/T790M); assay: Biochemical EGFR kinase assay (Lance Ultra TR-FRET), triple mutant L858R/T790M/C797S
Sequence of EGFR L858R/T790M/C797S (P00533 25-1210 T790M/C797S/L858R): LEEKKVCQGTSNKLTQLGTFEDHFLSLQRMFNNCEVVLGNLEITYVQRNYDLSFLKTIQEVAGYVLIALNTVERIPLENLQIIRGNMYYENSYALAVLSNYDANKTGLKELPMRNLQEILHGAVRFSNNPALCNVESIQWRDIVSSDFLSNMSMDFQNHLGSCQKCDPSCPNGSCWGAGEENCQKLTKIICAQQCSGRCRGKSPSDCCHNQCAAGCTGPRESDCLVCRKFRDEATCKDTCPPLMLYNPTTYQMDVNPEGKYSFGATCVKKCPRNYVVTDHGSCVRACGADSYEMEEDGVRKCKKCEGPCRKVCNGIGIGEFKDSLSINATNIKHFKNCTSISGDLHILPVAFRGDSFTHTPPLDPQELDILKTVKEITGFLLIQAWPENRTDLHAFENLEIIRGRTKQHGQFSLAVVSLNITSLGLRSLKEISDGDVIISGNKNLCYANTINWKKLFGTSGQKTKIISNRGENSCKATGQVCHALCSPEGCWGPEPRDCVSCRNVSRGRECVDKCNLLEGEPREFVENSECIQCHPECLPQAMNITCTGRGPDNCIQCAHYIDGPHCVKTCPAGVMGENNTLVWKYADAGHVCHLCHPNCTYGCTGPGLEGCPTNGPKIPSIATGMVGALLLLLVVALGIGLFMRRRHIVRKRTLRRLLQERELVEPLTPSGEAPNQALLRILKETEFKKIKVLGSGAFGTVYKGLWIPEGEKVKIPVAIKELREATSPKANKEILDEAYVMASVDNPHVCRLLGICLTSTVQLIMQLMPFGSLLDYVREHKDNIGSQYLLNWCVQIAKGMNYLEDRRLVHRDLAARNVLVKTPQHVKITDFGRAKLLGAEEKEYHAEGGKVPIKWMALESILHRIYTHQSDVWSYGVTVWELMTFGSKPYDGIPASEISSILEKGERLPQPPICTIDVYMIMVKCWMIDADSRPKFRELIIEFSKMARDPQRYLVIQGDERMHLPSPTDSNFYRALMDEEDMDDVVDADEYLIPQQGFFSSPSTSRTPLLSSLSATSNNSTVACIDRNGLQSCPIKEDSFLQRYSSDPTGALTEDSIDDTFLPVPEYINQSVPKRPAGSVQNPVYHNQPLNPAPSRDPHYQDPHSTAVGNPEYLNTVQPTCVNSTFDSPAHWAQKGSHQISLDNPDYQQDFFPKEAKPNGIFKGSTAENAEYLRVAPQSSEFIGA
Outline: as §1

[3] = target: EGFR del19/C797S (Homo sapiens, UniProt P00533, C797S/DEL746-750); assay: Biochemical EGFR kinase assay (Lance Ultra TR-FRET), double mutant del19/C797S
Sequence of EGFR del19/C797S (P00533 with tags, fused parts or gaps DEL746-750/C797S): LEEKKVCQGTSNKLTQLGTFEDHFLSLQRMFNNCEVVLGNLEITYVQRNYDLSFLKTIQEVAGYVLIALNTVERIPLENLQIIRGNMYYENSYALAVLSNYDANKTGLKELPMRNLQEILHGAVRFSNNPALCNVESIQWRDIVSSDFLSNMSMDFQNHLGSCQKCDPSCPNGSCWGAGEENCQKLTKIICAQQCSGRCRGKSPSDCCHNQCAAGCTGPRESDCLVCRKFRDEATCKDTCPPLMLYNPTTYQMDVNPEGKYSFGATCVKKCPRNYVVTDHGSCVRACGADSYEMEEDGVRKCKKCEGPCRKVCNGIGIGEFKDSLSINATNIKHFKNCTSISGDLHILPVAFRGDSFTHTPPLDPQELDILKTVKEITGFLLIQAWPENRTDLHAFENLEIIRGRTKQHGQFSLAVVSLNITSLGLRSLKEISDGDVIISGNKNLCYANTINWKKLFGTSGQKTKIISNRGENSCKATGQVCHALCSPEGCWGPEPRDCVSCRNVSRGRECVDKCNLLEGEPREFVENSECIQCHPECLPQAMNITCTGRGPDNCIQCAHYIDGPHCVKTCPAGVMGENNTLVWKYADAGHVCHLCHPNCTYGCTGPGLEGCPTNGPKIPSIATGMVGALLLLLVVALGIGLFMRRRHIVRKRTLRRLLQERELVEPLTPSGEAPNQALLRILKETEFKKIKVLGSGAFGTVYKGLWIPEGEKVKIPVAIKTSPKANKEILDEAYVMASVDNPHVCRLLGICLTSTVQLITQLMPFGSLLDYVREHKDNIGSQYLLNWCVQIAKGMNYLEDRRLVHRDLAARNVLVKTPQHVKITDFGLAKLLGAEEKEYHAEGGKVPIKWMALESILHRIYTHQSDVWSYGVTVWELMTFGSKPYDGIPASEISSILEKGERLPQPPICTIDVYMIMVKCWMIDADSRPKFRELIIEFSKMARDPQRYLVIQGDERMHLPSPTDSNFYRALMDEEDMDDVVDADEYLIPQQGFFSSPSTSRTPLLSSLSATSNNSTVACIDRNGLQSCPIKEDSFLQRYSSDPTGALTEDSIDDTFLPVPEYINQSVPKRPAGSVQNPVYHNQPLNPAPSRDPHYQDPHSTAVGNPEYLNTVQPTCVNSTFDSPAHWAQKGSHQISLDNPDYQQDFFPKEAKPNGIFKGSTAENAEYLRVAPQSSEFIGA
Outline: as §1

[4] = target: EGFR L858R/C797S (Homo sapiens, UniProt P00533, C797S/L858R); assay: Biochemical EGFR kinase assay (Lance Ultra TR-FRET), double mutant L858R/C797S
Outline: as §1

[5] = target: EGFR wildtype (WT) (Homo sapiens, UniProt P00533); assay: Biochemical EGFR kinase assay (Lance Ultra TR-FRET), wildtype
Sequence of EGFR wildtype (WT) (P00533 25-1210): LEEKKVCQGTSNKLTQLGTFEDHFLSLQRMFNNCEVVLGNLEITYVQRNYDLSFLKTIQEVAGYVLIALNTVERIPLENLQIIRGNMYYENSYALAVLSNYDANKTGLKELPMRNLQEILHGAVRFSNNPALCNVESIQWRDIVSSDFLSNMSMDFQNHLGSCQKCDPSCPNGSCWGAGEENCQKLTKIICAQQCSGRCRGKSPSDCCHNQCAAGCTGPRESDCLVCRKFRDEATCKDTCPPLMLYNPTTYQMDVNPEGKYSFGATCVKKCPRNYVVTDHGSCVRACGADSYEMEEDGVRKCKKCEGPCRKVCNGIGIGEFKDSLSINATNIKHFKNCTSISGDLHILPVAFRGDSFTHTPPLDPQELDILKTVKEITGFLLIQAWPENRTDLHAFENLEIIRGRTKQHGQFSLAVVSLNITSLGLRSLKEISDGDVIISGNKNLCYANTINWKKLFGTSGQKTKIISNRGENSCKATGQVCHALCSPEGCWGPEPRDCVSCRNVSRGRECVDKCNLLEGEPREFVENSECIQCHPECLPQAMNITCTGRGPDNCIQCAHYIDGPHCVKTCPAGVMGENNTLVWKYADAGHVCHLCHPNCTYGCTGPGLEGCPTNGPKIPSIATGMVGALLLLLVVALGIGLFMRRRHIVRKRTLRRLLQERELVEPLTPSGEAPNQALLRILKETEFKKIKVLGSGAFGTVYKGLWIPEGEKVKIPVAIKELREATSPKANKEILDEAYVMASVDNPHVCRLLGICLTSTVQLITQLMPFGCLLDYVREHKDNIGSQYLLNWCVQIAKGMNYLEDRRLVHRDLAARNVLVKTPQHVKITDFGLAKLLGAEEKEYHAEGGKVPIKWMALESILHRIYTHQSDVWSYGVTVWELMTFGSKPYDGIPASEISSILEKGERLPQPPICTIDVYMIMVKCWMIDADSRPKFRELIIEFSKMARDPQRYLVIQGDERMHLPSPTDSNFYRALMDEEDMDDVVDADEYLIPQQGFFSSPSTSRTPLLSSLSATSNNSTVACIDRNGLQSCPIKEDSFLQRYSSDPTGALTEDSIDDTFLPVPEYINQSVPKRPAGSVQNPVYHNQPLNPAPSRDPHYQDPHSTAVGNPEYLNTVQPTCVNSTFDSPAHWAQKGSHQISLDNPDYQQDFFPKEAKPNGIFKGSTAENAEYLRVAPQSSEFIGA
Outline: as §1

[6] = IC50 del19/T790M/C797S (nM) 100 μM ATP, 100 μM ATP
[7] = Km ATP, read-out: IC50 del19/T790M/C797S (nM) Km ATP
[8] = IC50 L858R/T790M/C797S (nM) 100 μM ATP, 100 μM ATP
[9] = Km ATP, read-out: IC50 L858R/T790M/C797S (nM) Km ATP
[10] = IC50 del19/C797S (nM) 100 μM ATP, 100 μM ATP
[11] = Km ATP, read-out: IC50 del19/C797S (nM) Km ATP
[12] = IC50 L858R/C797S (nM) 100 μM ATP, 100 μM ATP
[13] = Km ATP, read-out: IC50 L858R/C797S (nM) Km ATP
[14] = IC50 WT (nM) 100 μM ATP, 100 μM ATP
[15] = Km ATP, read-out: IC50 WT (nM) Km ATP

Sequence of EGFR del19/T790M/C797S (P00533 with tags, fused parts or gaps DEL746-750/T790M/C797S): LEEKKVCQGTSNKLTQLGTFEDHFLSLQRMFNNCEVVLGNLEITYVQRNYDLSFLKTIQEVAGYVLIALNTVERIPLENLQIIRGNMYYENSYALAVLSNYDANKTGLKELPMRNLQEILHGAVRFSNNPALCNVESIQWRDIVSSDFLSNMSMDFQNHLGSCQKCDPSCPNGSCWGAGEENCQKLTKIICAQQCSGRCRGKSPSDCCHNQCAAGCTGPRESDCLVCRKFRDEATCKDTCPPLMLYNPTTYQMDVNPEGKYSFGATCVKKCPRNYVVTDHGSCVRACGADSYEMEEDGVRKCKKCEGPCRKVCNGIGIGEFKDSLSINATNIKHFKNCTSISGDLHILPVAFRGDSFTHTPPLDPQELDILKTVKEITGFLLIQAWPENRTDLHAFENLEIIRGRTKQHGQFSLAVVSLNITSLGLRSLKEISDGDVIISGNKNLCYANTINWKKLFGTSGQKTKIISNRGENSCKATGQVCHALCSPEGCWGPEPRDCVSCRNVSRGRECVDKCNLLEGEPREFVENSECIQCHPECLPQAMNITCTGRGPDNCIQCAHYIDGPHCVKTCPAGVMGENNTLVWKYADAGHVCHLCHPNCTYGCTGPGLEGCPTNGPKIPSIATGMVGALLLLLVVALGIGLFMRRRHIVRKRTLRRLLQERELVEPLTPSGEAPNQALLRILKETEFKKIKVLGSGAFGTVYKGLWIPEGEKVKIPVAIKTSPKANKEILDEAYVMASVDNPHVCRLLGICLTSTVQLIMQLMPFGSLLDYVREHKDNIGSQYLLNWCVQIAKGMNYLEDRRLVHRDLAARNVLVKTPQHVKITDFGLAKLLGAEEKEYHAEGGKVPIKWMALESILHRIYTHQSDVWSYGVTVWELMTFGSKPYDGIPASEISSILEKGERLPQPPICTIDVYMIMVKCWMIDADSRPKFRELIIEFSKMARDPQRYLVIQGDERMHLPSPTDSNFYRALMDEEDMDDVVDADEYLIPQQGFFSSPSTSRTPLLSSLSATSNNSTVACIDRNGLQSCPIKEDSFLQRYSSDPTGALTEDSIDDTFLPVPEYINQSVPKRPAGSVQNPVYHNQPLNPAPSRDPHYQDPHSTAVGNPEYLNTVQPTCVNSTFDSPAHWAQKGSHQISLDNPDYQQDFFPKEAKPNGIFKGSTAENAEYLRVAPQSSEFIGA

| IC50 [1, 6] [nM] | IC50 [1, 7] [nM] | IC50 [2, 8] [nM] | IC50 [2, 9] [nM] | IC50 [3, 10] [nM] | IC50 [3, 11] [nM] | IC50 [4, 12] [nM] | IC50 [4, 13] [nM] | IC50 [5, 14] [nM] | IC50 [5, 15] [nM] | IC50 ([1]; IC50 del19/T790M/C797S, 100 μM ATP) [nM] | IC50 ([2]; IC50 L858R/T790M/C797S, 100 μM ATP) [nM] | IC50 ([3]; IC50 del19/C797S, 100 μM ATP) [nM] | IC50 ([4]; IC50 L858R/C797S, 100 μM ATP) [nM] | IC50 ([5]; IC50 WT, 100 μM ATP) [nM] | IC50 ([5]; Km ATP, read-out: IC50 WT, Km ATP) [nM] | SMILES |
| --- | --- | --- | --- | --- | --- | --- | --- | --- | --- | --- | --- | --- | --- | --- | --- | --- |
| – | – | – | – | – | – | – | – | – | – | 6.3 | 3.7 | 124 | 409 | > 10000 | 335 | CC1(O)CCC(Nc2cc(Nc3ccnc(N4CC(CO)C(F)(F)C4)n3)ncc2-c2ccn(C(F)F)n2)CC1 (stereo not drawn) [Example 346, (1s,4s)-4-((2-((2-(3,3-Difluoro-4-(hydroxymethyl)pyrrolidin-1-yl)pyrimidin-4-yl)amino)-5-(1-(difluoromethyl)-1H-pyrazol-3-yl)pyridin-4-yl)amino)-1-methylcyclohexan-1-ol] |
| 1.3 | – | 1.9 | – | 57.7 | – | 45.2 | – | > 10000 | – | – | – | – | – | – | – | CC(O)C(C)(C)Nc1cc(Nc2ccnc(-c3cnn(S(=O)(=O)C4CC4)c3)n2)ncc1-c1ccn(C)n1 (stereo not drawn) [Example 95, 3-((2-((2-(1-(Cyclopropylsulfonyl)-1H-pyrazol-4-yl)pyrimidin-4-yl)amino)-5-(1-methyl-1H-pyrazol-3-yl)pyridin-4-yl)amino)-3-methylbutan-2-ol] |

More lines, now with the values behind:

| SMILES | IC50 [1, 6] [nM] | IC50 [1, 7] [nM] | IC50 [2, 8] [nM] | IC50 [2, 9] [nM] | IC50 [3, 10] [nM] | IC50 [3, 11] [nM] | IC50 [4, 12] [nM] | IC50 [4, 13] [nM] | IC50 [5, 14] [nM] | IC50 [5, 15] [nM] | IC50 ([1]; IC50 del19/T790M/C797S, 100 μM ATP) [nM] | IC50 ([2]; IC50 L858R/T790M/C797S, 100 μM ATP) [nM] | IC50 ([3]; IC50 del19/C797S, 100 μM ATP) [nM] | IC50 ([4]; IC50 L858R/C797S, 100 μM ATP) [nM] | IC50 ([5]; IC50 WT, 100 μM ATP) [nM] | IC50 ([5]; Km ATP, read-out: IC50 WT, Km ATP) [nM] |
| --- | --- | --- | --- | --- | --- | --- | --- | --- | --- | --- | --- | --- | --- | --- | --- | --- |
| O=S(=O)(C1CC1)n1cc(-c2nccc(Nc3cc(N[C@H]4CC[C@@H](CO)CC4)c(-c4ccn(C(F)F)n4)cn3)n2)cn1 [Example 18, ((1s,4s)-4-((2-((2-(1-(Cyclopropylsulfonyl)-1H-pyrazol-4-yl)pyrimidin-4-yl)amino)-5-(1-(difluoromethyl)-1H-pyrazol-3-yl)pyridin-4-yl)amino)cyclohexyl)methanol] | 0.4 | 0.3 | 0.6 | 0.2 | 1.4 | 0.9 | 13 | 1.9 | > 10000 | 3 | – | – | – | – | – | – |
| Cc1nn(S(=O)(=O)N(C)C)cc1-c1nccc(Nc2cc(N[C@H]3CC[C@@](C)(O)CC3)c(-c3ccn(C(F)F)n3)cn2)n1 [Example 315, 4-(4-((5-(1-(Difluoromethyl)-1H-pyrazol-3-yl)-4-(((1s,4s)-4-hydroxy-4-methylcyclohexyl)amino)pyridin-2-yl)amino)pyrimidin-2-yl)-N,N,3-trimethyl-1H-pyrazole-1-sulfonamide] | 1.9 | 0.6 | 1.1 | 0.5 | 11 | 6.3 | 37.4 | 5.4 | > 10000 | 14.2 | – | – | – | – | – | – |
| O=S(=O)(C1CC1)n1cc(-c2nccc(Nc3cc(N[C@H]4CC[C@@H](CCO)CC4)c(-c4ccn(CC(F)(F)F)n4)cn3)n2)cn1 [Example 269, 2-((1s,4s)-4-((2-((2-(1-(Cyclopropylsulfonyl)-1H-pyrazol-4-yl)pyrimidin-4-yl)amino)-5-(1-(2,2,2-trifluoroethyl)-1H-pyrazol-3-yl)pyridin-4-yl)amino)cyclohexyl)ethan-1-ol] | 1.3 | 2.8 | 1.4 | 0.5 | 29.9 | 1.3 | 4 | 1.4 | 5750 | 7.1 | – | – | – | – | – | – |
| O=C1CC[C@]2(CC[C@H](Nc3cc(Nc4ccnc(-c5cnn(S(=O)(=O)C6CC6)c5)n4)ncc3-c3csc(C(F)(F)F)n3)CC2)N1 [Example 52, (5s,8s)-8-((2-((2-(1-(Cyclopropylsulfonyl)-1H-pyrazol-4-yl)pyrimidin-4-yl)amino)-5-(2-(trifluoromethyl)thiazol-4-yl)pyridin-4-yl)amino)-1-azaspiro[4.5]decan-2-one] | 0.6 | 0.6 | 0.6 | 0.4 | 0.8 | 1.3 | 10 | 1.6 | > 10000 | 18 | – | – | – | – | – | – |
